According to ChEMBL document CHEMBL4308867, “Discovery of naldemedine: A potent and orally available opioid receptor antagonist for treatment of opioid-induced adverse effects” (Bioorg Med Chem Lett, 2019):
pKi: −log10 of the molar value.

What was measured:
Mu-type opioid receptor [1] = target: T1, Mu-type opioid receptor (Homo sapiens, UniProt P35372); assay: Antagonist activity at mu-opioid receptor (unknown origin) by [35S]-GTPgammaS binding assay; format: functional
Rattus norvegicus [2] = assay: Selectivity ratio of ED50 for inhibition of morphine-induced analgesia in po dosed rat to ED50 for inhibition of morphine-induced constipation in po dosed rat; format: functional
[3] = Oral bioavailability in rat at 1 mg/kg administered as cassette dose; format: ADME, organism-based; conditions: in vivo
[4] = Stability in plasma (unknown origin) assessed as parent compound remaining after 24 hrs; format: ADME, cell-free; conditions: read-out: Stability
Rattus norvegicus [5] = species: Rattus norvegicus; assay: […]; format: functional; conditions: po
[6] = Cmax in rat brain at 1 mg/kg, po administered as cassette dose; format: ADME, organism-based; design: dose 1 mg/kg, route oral
[7] = Brain to blood partition coefficient, Kp of the compound in rat at 1 mg/kg, po administered as cassette dose; format: ADME, organism-based
[8] = target: T2, Delta-type opioid receptor (Homo sapiens, UniProt P41143); assay: Antagonist activity at delta-opioid receptor (unknown origin) by [35S]-GTPgammaS binding assay; format: functional
T2 sequence (P41143 whole entry): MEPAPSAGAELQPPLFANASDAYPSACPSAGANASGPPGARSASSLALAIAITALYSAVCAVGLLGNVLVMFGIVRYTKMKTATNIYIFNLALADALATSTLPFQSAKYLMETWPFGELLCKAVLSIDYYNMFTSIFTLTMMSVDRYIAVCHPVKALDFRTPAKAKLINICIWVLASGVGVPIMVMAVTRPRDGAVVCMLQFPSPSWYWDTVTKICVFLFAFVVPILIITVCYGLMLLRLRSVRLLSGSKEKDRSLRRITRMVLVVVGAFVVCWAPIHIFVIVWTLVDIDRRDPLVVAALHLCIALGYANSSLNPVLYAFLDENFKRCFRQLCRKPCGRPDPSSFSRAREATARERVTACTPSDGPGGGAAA

Mustela putorius furo [9] = assay: In vivo antagonist activity at mu-opioid receptor in po dosed ferret assessed as inhibition of morphine-induced emesis/vomiting; format: functional
[10] = Chemical stability of the compound; format: physicochemical
[11] = Stability in human microsomes assessed as parent compound remaining at 0.5 uM measured after 0.5 hrs; format: ADME, Microsome; conditions: read-out: Stability
[12] = Selectivity ratio of ED50 for inhibition of morphine-induced analgesia in po dosed rat to ED50 for inhibition of morphine-induced emesis/vomiting in po dosed ferret; format: functional
[13] = Total clearance in rat at 1 mg/kg, po administered as cassette dose; format: ADME, organism-based; conditions: in vivo
Mu-type opioid receptor [14] = target: T1, Mu-type opioid receptor; assay: Displacement of [3H]-DAMGO from recombinant human mu-opioid receptor expressed in CHOK1 cells; format: cell-based
[15] = target: T2, Delta-type opioid receptor; assay: Displacement of [3H]-DADLE from recombinant human delta-opioid receptor expressed in HEK293 cells; format: cell-based
Rattus norvegicus [16] = assay: Antianalgesic activity in po dosed rat assessed as inhibition of morphine-induced analgesia by tail-flick test; format: functional
[17] = Stability in rat microsomes assessed as parent compound remaining at 0.5 uM measured after 0.5 hrs; format: ADME, Microsome; conditions: read-out: Stability
Mustela putorius furo [18] = assay: In vivo antagonist activity at mu-opioid receptor in sc dosed ferret assessed as inhibition of morphine-induced emesis/vomiting; format: functional
Rattus norvegicus [19] = assay: In vivo antagonist activity at […] in sc dosed rat assessed as inhibition of morphine-induced constipation; format: functional

T1 sequence (P35372 whole entry): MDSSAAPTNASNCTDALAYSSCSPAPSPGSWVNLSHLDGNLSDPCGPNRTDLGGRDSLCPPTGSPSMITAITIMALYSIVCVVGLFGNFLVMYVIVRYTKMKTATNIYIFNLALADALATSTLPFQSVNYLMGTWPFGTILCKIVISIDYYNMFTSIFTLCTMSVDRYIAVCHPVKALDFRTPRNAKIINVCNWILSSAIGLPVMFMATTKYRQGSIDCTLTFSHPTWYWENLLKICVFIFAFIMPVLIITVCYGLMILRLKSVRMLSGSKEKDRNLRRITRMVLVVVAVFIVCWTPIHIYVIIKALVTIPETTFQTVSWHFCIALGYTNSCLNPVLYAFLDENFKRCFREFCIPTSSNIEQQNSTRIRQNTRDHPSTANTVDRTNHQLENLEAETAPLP

CC(C)(NC(=O)C1=C(O)[C@@H]2Oc3c(O)ccc4c3[C@@]23CCN(CC2CC2)[C@H](C4)[C@]3(O)C1)c1nc(-c2ccccc2)no1 [NALDEMEDINE]
Ke (Mu-type opioid receptor [1]): 0.05 nM
Ratio ED50 (Rattus norvegicus [2]): >500
bioavailability [3]: 29%
remaining at 24 h [4]: > 80%
ED50 (Rattus norvegicus [5]): 0.03 mg/kg
Cmax [6]: 1.3 ng/mL
Kp [7]: 0.03
Ke [8]: 0.37 nM
ED50 (Mustela putorius furo [9]): 0.03 mg/kg
Stability [10]: Stable
remaining at 0.5 h, 0.5 µM [11]: 73%
Ratio ED50 [12]: >1000
CL/F [13]: 20 mL/min/kg
pKi (Mu-type opioid receptor [14]): 8.95 to 8.96
pKi [15]: 9.04
ED50 (Rattus norvegicus [16]): > 30 mg/kg
remaining at 0.5 h, 0.5 µM [17]: 76%

O=C(C1=C(O)[C@@H]2Oc3c(O)ccc4c3[C@@]23CCN(CC2CC2)[C@H](C4)[C@]3(O)C1)N1CCCC1
bioavailability [3]: 18%
remaining at 24 h [4]: > 80%
Cmax [6]: 3 ng/mL
Kp [7]: 0.22
Stability [10]: Stable
remaining at 0.5 h, 0.5 µM [11]: 99%
CL/F [13]: 102 mL/min/kg
pKi (Mu-type opioid receptor [14]): 8.40
pKi [15]: 8.13
remaining at 0.5 h, 0.5 µM [17]: 24%

CC(C)NC(=O)C1=C(O)[C@@H]2Oc3c(O)ccc4c3[C@@]23CCN(CC2CC2)[C@H](C4)[C@]3(O)C1
Ke (Mu-type opioid receptor [1]): 6.2 nM
Ratio ED50 (Rattus norvegicus [2]): 19
bioavailability [3]: 50%
remaining at 24 h [4]: > 80%
ED50 (Rattus norvegicus [5]): 0.57 mg/kg
Ke [8]: 3.8 nM
ED50 (Mustela putorius furo [9]): 0.04 mg/kg
Stability [10]: Stable
remaining at 0.5 h, 0.5 µM [11]: 95%
Ratio ED50 [12]: 266
CL/F [13]: 41 mL/min/kg
pKi (Mu-type opioid receptor [14]): 8.28 to 8.47
pKi [15]: 8.13 to 8.70
ED50 (Rattus norvegicus [16]): 10.7 mg/kg
remaining at 0.5 h, 0.5 µM [17]: 88%

C[N@+]1(CC2CC2)CC[C@]23c4c5ccc(O)c4O[C@H]2C(=O)CC[C@@]3(O)[C@H]1C5.[Br-] [METHYLNALTREXONE BROMIDE]
Ke (Mu-type opioid receptor [1]): 56 nM
ED50 (Mustela putorius furo [18]): 0.69 mg/kg
Ke [8]: 1080 nM
ED50 (Rattus norvegicus [19]): 4.5 mg/kg

O=C(Nc1ccccn1)C1=C(O)[C@@H]2Oc3c(O)ccc4c3[C@@]23CCN(CC2CC2)[C@H](C4)[C@]3(O)C1
bioavailability [3]: 55%
remaining at 24 h [4]: > 80%
Cmax [6]: 5.6 ng/mL
Kp [7]: 0.05
Stability [10]: Stable
remaining at 0.5 h, 0.5 µM [11]: 98%
CL/F [13]: 25 mL/min/kg
pKi (Mu-type opioid receptor [14]): 8.01
pKi [15]: 8.17
remaining at 0.5 h, 0.5 µM [17]: 97%

C[C@H](CO)NC(=O)C1=C(O)[C@@H]2Oc3c(O)ccc4c3[C@@]23CCN(CC2CC2)[C@H](C4)[C@]3(O)C1
bioavailability [3]: 3.4%
remaining at 24 h [4]: > 80%
Cmax [6]: 0.21 ng/mL
Kp [7]: 0.05
Stability [10]: Stable
CL/F [13]: 27 mL/min/kg
pKi (Mu-type opioid receptor [14]): 7.71
pKi [15]: 7.74

O=C(Nc1ccccc1)C1=C(O)[C@@H]2Oc3c(O)ccc4c3[C@@]23CCN(CC2CC2)[C@H](C4)[C@]3(O)C1
Ke (Mu-type opioid receptor [1]): 3.2 nM
Ratio ED50 (Rattus norvegicus [2]): 17
bioavailability [3]: 57%
remaining at 24 h [4]: > 80%
ED50 (Rattus norvegicus [5]): 0.99 mg/kg
Ke [8]: 3.6 nM
ED50 (Mustela putorius furo [9]): 0.04 mg/kg
Stability [10]: Stable
remaining at 0.5 h, 0.5 µM [11]: 89%
Ratio ED50 [12]: 413
CL/F [13]: 36 mL/min/kg
pKi (Mu-type opioid receptor [14]): 8.39 to 9.00
pKi [15]: 7.70 to 8.17
ED50 (Rattus norvegicus [16]): 16.5 mg/kg
remaining at 0.5 h, 0.5 µM [17]: 78%

O=C(O)c1ccc2c3c([nH]c2c1Cl)[C@@H]1Oc2c(O)ccc4c2[C@@]12CCN(CC1CC1)[C@H](C4)[C@]2(O)C3
bioavailability [3]: 0.2%
Cmax [6]: 0.032 ng/mL
Kp [7]: 0.03
remaining at 0.5 h, 0.5 µM [11]: 97%
CL/F [13]: 18.1 mL/min/kg
pKi (Mu-type opioid receptor [14]): 7.72
pKi [15]: 9.00
remaining at 0.5 h, 0.5 µM [17]: 100%

N#Cc1ccc(NC(=O)C2=C(O)[C@@H]3Oc4c(O)ccc5c4[C@@]34CCN(CC3CC3)[C@H](C5)[C@]4(O)C2)cc1
bioavailability [3]: 12%
remaining at 24 h [4]: > 80%
Cmax [6]: 1.3 ng/mL
Kp [7]: 0.03
Stability [10]: Stable
remaining at 0.5 h, 0.5 µM [11]: 103%
CL/F [13]: 8.5 mL/min/kg
pKi (Mu-type opioid receptor [14]): 8.29
pKi [15]: 7.95
remaining at 0.5 h, 0.5 µM [17]: 92%

CC(C)(NC(=O)C1=C(O)[C@@H]2Oc3c(O)ccc4c3[C@@]23CCN(CC2CC2)[C@H](C4)[C@]3(O)C1)C(=O)O
bioavailability [3]: 0.52%
remaining at 24 h [4]: > 80%
Cmax [6]: 0.055 ng/mL
Kp [7]: 0.04
Stability [10]: Stable
CL/F [13]: 28 mL/min/kg
pKi (Mu-type opioid receptor [14]): 7.34
pKi [15]: 7.93
